In patent US20240415124A1, “HERBICIDAL COMPOSITION CONTAINING 3-(2-CHLORO-4-FLUORO-5-(3-METHYL-2,6-DIOXO-4-TRIFLUOROMETHYL-3,6-DIHYDROPYRIMIDIN-1(2H)-YL)PHENYL)-5-METHYL-4,5-DIHYDROISOXAZOLE-5-CARBOXYLIC ACID ETHYL ESTER AND GLUFOSINATE-P AND USE THEREOF” (NANTONG JIANGSHAN AGROCHEMICAL & CHEMICALS CO., LTD., priority 2022, published 2024):

Tested on: Erigeron canadensis
Assay: Laboratory activity determination test (greenhouse pot test, stem and leaf spray, fresh weight inhibition, Gowing method)
Type: in vivo
Settings: single pesticide
Protocol: (1) Test objective: Inhibitory effects of 3-(2-chloro-4-fluoro-5-(3-methyl-2,6-dioxo-4-trifluoromethyl-3,6-dihydropyrimidin-1(2H)-yl)phenyl)-5-methyl-4,5-dihydroisoxazole-5-carboxylic acid ethyl ester, glufosinate-P and different mixed compositions of the two pesticides on Erigeron canadensis under potting conditions in a greenhouse are determined, and a combined action of the two pesticides is evaluated. […] After a pesticide liquid was air-dried, a test material was placed in a greenhouse for cultivation. […] A method for evaluating the combined action of the two pesticides after compounding was used with reference to a Gowing method in Pesticides Guidelines for Laboratory Bioactivity Tests: Determining Combined Action of Mixtures.
Fresh weight inhibition rate %=(fresh weight of a control group—fresh weight of a treatment group)/fresh weight of a control group*100.
When E-E0 is greater than −10 and less than 10, an additive effect is achieved. When E-E0 is equal to or less than −10, an antagonistic effect is achieved.

Row | Structure (SMILES) | Measured control efficacy E (%) (dosage 8 g a.i./mu) | Measured control efficacy E (%) (dosage 12 g a.i./mu) | Measured control efficacy E (%) (dosage 16 g a.i./mu) | Measured control efficacy E (%) (dosage 20 g a.i./mu) | Measured control efficacy E (%) (dosage 24 g a.i./mu) | Measured control efficacy E (%) (dosage 1 g a.i./mu) | Measured control efficacy E (%) (dosage 2 g a.i./mu) | Measured control efficacy E (%) (dosage 3 g a.i./mu) | Measured control efficacy E (%) (dosage 4 g a.i./mu) | Measured control efficacy E (%) (dosage 5 g a.i./mu)
1 | CP(=O)(O)CC[C@H](N)C(=O)O [Glufosinate-P] | 21.63 | 51.94 | 67.92 | 74.07 | 78.07 |  |  |  |  | 
2 | CCOC(=O)C1(C)CC(c2cc(-n3c(=O)cc(C(F)(F)F)n(C)c3=O)c(F)cc2Cl)=NO1 (stereo not shown) [3-(2-chloro-4-fluoro-5-(3-methyl-2,6-dioxo-4-trifluoromethyl-3,6-dihydropyrimidin-1(2H)-yl)phenyl)-5-methyl-4,5-dihydroisoxazole-5-carboxylic acid ethyl ester] |  |  |  |  |  | 33.82 | 44.46 | 72.89 | 80.22 | 89.09
